In a melting point compilation (Tetko et al.; mined from patent text by program, amines drawn as free bases though some values may be those of a salt):

melting point [°C]	SMILES
83 to 87	O=C1C(=O)c2ccc(-c3ccccc3)cc2C2=C1SCC1(CCNCC1)O2
182 to 184	COC(=O)c1cc2nccnc2c(Cl)c1N
138	CN(C)c1ccc2c(c1)CN1C(=Nc3cccnc3)SC[C@@H]1C2
69 to 72	CC(C)(C)OC(=O)COCCCCCCn1nc(-c2ccccc2)c(-c2ccccc2)c1-c1ccccc1
255 to 258	Nc1c(-c2ccccc2)nn2c1ccc1ccccc12
108 to 110	COc1ccc(CNc2ccccc2C(=O)Nc2ccc(Cl)c(C(F)(F)F)c2)cn1
91 to 93	COC(=O)Cn1c(=O)c2ccccc2n(CCCCN2CCC(OC(c3ccccc3)c3ccccc3)CC2)c1=O
95	CC(C)(C)OC(=O)CN(C(=O)CNC(=O)c1ccc(Cl)c(Cl)c1)c1ccccc1
187 to 188	CC1(c2ccccc2)OC(C=Cc2ccc(C#N)cc2)=CC1=O (centres undefined)
227 to 229	COc1cccc(-n2nc(C(=O)O)c3csc(N)c3c2=O)c1
179	COC(=O)c1cc(OC)c(O)c(C23CC4CC(CC(C4)C2)C3)c1
60 to 63	CCOC(=O)c1cnc2sccc2c1Sc1ccc(C)cc1
57 to 61.5	Cc1csc2ccc(C3CCN(Cl)CC3)cc12
96 to 100	CS(=O)(=O)c1ccc(-c2cc(CO)nn2-c2ccc(Cl)cc2)cc1
228	Cc1cc2c(cc1C)C(=O)C(Br)=C(N)C2=O
49 to 51	CC(CNS(=O)(=O)c1ccccc1)c1ccc(OCC(=O)O)c(F)c1 (centres undefined)
89	COc1cc(C)ccc1S(=O)(=O)OCC(=O)c1ccccc1
154 to 156	O=S(=O)(Nc1ccc2c(OCc3csc(-c4ccc(Cl)nc4)n3)cccc2c1)C(F)(F)F
163	CC(=O)N1N=C(c2ccncc2)OC1c1c(Cl)cccc1Cl (centres undefined)
90.5 to 92	Cc1cc(C(O)(C(F)(F)Cl)C(F)(F)Cl)cc(C)c1O
150 to 155	Cc1ccc2c(c1)C(CC(=O)NO)N(c1ccccc1)S2(=O)=O (centres undefined)

melting point [°C]	SMILES
238 to 240	CC(C)(C)OC(=O)NCc1ccc(CC(=O)Nc2ccc(Nc3cc(-c4cccc5c4oc4ccccc45)ncn3)cc2)cc1
158 to 161	C[C@@H]([C@@H](O)c1ccc(OCc2ccccc2)cc1)N1CCC(O)(c2ccccc2)CC1
119 to 121	Cc1cc(-c2nncc3c(C(C)(C)C)c(OCc4ccncc4)nn23)no1
112 to 114	O=C1CC(C(F)(F)F)CC(=O)N1c1cc(O)c(Cl)cc1F
84 to 88	CC(=O)SCC(=O)c1cc(S(=O)(=O)N(C)C)ccc1Cl
119 to 120	Cc1ccc(NC(=O)Cc2ccccc2)cc1
192 to 193	COc1cc(OC)c2cc(-c3ccc([N+](=O)[O-])cc3)oc2c1
65 to 70	CCc1cc(=O)n(C)c2c1C(=O)CCC2
137 to 140	COC(=O)c1ccc2ccc(NC(=O)OC(C)(C)C)c(Br)c2c1
236	CS(=O)(=O)c1cc(CCC(=O)O)nc(-c2nc(=O)c3ccc(F)cc3s2)c1
81 to 85	CC(C)NC(=O)Nc1cccc2c1C(=O)C1(O)c3ccc(C(C)C)cc3OC21O (centres undefined)
186	Cc1ccc2c(c1NC(=O)NCC1(c3ccccc3)CCCC1)OC(C)(C)C2
187 to 188	COc1ccccc1N1CCN(CCCNc2ncc3cc(-c4c(Cl)cccc4Cl)c(=O)n(C)c3n2)CC1
154 to 155	N#Cc1cc(N)nc(SCc2ccc3ccccc3c2)n1
141 to 142	Cc1cc2c(-c3ccccc3)nc(N3CCN(CC(=O)c4ccc(F)cc4)CC3)nc2s1
102 to 104	CCOC(=O)c1cc2n(c1)CN(CCC#N)c1ccccc1-2
196 to 198	Cc1cc2nc(-c3ccc(F)cc3)cn2nc1Cl
186 to 188	COC(=O)c1cccc2nc(SCCN3CCN(CCNC(=O)Nc4c(C(C)C)cccc4C(C)C)CC3)oc12
129 to 130	CCOC(OCC)c1cc(NC(c2ccccc2)(c2ccccc2)c2ccccc2)c(F)c(Cc2ccc(F)cc2)n1
117 to 118	Cc1oc(-c2cccs2)nc1COc1ccc(Cn2cc(CCC(=O)O)c(-c3ccccc3)c2)cc1
182 to 184	CC(=O)c1ccc(-c2cc(N3CCCCC3)c(C#N)c3c2-c2ccccc2C3)cc1

melting point [°C]	SMILES
226	CCn1c(=S)sc2c(=N)n(NC(=O)c3ccco3)cnc21
123 to 125	CC=Cc1c(N)nc(-c2ccc(C(F)(F)F)cc2)nc1C(=O)OC
133 to 135	CCOC(=O)NCCc1cccc(-c2ccnc3c(C#N)cnn23)c1
> 300	COc1ccc(C2=NN(c3ccccn3)C(=O)CC2)cc1
73	O=c1[nH]c(=O)n(C2CC(F)C(COC(c3ccccc3)(c3ccccc3)c3ccccc3)O2)cc1C#CI (centres undefined)
146 to 147	CC(C)OC(=O)c1nc(Cl)c(-c2c(F)cc(F)cc2F)c(N[C@@H](C)C(F)(F)F)n1
65 to 69	COC(=O)C1CCCCc2c(-c3ccc(Cl)cc3)noc2C1 (centres undefined)
201 to 203	COc1ccc(N2CCN(C(=O)[C@H](Cc3ccccc3)NC(=O)Nc3n[nH]c(=S)s3)CC2)cc1
177 to 179	COC(=O)c1ccc2[nH]cc(CCCCN3CCN(c4ccc5c(c4)OCCO5)CC3)c2c1
149 to 151	CC(C)c1cc(C(=O)O)sc1C(C)C
45	OCc1ccc(-c2cccc(C(F)(F)F)c2)o1
114	O=S(=O)(COc1ccc(Cl)cc1)c1ccc(Cl)cc1
110	CCCCc1nc2ccc([C@H]3C[C@H](CO)ON3C)cc2c(=O)n1Cc1ccc(-c2ccccc2-c2nnn[nH]2)cc1 (relative stereo)
202 to 203	COc1c(O)cc(O)c2c(=O)cc(-c3ccccc3)oc12
233 to 235	CNC1CCN(c2nc3c(cc2F)c(=O)c(C(=O)O)cn3C2CC2)C1 (centres undefined)
66 to 70	COc1cccc(C(=C/C=C/C(=O)NCCCCCCc2cccnc2)c2cccc(OC)c2)c1
96 to 98	C=CCC(NC(=O)CC)C(=O)O (centres undefined)
256 to 258	Cc1nc(NC(=O)c2ccc(C#N)cc2)sc1C(=O)NCc1ccccc1
121 to 123	COc1ccc(Cn2c(C)nc3c(Cl)ncnc32)cc1
117 to 119	CCCCC(C(=O)O)C1=C(c2ccccc2)c2ccccc2OC1 (centres undefined)
127 to 129	O=C(Nc1ccc(N2CCN(C(=O)Nc3ccc(OCCO)cc3C(F)(F)F)CC2)cc1)Nc1cccc2c1OCCO2

SMILES	melting point [°C]
CCCCCCCCCCC[C@]1(C)OO[C@@H]2C[C@H]1CC(=O)[C@@H]2C	42
O=[N+]([O-])c1ncn(COC(CO)CO)n1	132
CC12CCC(Oc3c(F)c(F)c(C(F)(F)F)c(F)c3F)=CC1=CCC1C2CCC2(C)C(OS(=O)(=O)C(F)(F)F)=CCC12 (centres undefined)	106 to 107
CC(=O)OC1=CCC2C3CC=C4CC(OC(C)=O)CCC4(C)C3CCC12C (centres undefined)	144 to 150
O=Cc1csc(NC(=O)OCC(Cl)(Cl)Cl)n1	188 to 190
O=C(OCc1ccc(Cl)cc1)c1ncn2c1[C@@H]1CCCN1C(=O)c1c(Cl)cccc1-2	183 to 184
